The source made the active and inactive calls. No cut-off for these calls is given here.
Assays:
[1] = molecular target: T1, C-X-C chemokine receptor type 2 (Homo sapiens) (UniProt P25025); assay: Antagonist activity at CXCR2 (unknown origin) at 10 uM by calcium flux assay relative to control; assay type: functional
T1 sequence (whole entry): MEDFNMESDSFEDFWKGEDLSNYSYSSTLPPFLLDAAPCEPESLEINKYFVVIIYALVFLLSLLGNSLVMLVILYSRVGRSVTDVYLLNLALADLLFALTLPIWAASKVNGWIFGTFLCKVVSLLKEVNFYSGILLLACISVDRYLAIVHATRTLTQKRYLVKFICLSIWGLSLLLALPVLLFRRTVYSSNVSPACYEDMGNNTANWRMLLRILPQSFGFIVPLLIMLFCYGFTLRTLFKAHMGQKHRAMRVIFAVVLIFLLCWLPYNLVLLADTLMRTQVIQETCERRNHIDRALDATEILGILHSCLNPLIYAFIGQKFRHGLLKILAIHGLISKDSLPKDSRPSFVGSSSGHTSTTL

MDA-MB-231 [2] = assay: Antimigratory activity against human MDA-MB-231 cells assessed as reduction in cell migration at 2 uM measured after 24 hrs by wound healing assay relative to control; assay type: functional; parameters: scale not given: the % may be the effect or the level left
MDA-MB-231 [3] = assay: Antimigratory activity against human MDA-MB-231 cells assessed as reduction in cell migration at 2 uM measured after 24 hrs by crystal violet staining based transwell assay relative to control; assay type: functional; parameters: scale not given: the % may be the effect or the level left
HUVEC [4] = assay: Anti-angiogenesis activity in HUVEC cells assessed as reduction in blood vessel area at 2 uM measured after 12 hrs by inverted microscopic analysis relative to control; assay type: functional, Homo sapiens; parameters: scale not given: the % may be the effect or the level left
MDA-MB-231 [5] = assay: Synergistic antiproliferative activity against human MDA-MB-231 cells assessed as inhibition of cell growth at 10 uM incubated for 72 hrs in presence of Sorafenib by MTT assay; assay type: functional, cell-based; settings: MDA-MB-231, 72 h
MDA-MB-231 [6] = assay: Synergistic antiproliferative activity against human MDA-MB-231 cells assessed as inhibition of cell growth at 25 uM incubated for 72 hrs in presence of Sorafenib by MTT assay; assay type: functional, cell-based; settings: MDA-MB-231, 72 h
MDA-MB-231 [7] = assay: Antiproliferative activity against human MDA-MB-231 cells assessed as reduction in cell viability measured after 72 hrs by MTT assay; assay type: functional, cell-based; settings: MDA-MB-231, 72 h
MDA-MB-231 [8] = assay: Inhibition of PI3K signalling in human MDA-MB-231 cells assessed as decrease in PI3K phosphorylation at 5 to 10 uM measured after 24 hrs by Western blot assay; assay type: cell-based; settings: dose 5-10 µM
MDA-MB-231 [9] = assay: Inhibition of PI3K signalling in human MDA-MB-231 cells assessed as decrease in AKT phosphorylation at 5 to 10 uM measured after 24 hrs by Western blot assay; assay type: cell-based; settings: dose 5-10 µM
MDA-MB-231 [10] = assay: Inhibition of epithelial-mesenchymal transition in human MDA-MB-231 cells assessed as upregulation of E-cadherin expression at 10 uM measured after 24 hrs by Western blot assay; assay type: functional, cell-based
MDA-MB-231 [11] = assay: Inhibition of epithelial-mesenchymal transition in human MDA-MB-231 cells assessed as downregulation of fibronectin expression at 10 uM measured after 24 hrs by Western blot assay; assay type: functional, cell-based
MDA-MB-231 [12] = assay: Inhibition of epithelial-mesenchymal transition in human MDA-MB-231 cells assessed as downregulation of vimentin expression at 10 uM measured after 24 hrs by Western blot assay; assay type: functional, cell-based
MDA-MB-231 [13] = assay: Inhibition of epithelial-mesenchymal transition in human MDA-MB-231 cells assessed as downregulation of beta-catenin expression at 10 uM measured after 24 hrs by Western blot assay; assay type: functional, cell-based
HUVEC [14] = assay: Down-regulation of VEGF expression in HUVEC cells assessed as 10 uM measured after 24 hrs by Western blot assay; assay type: functional, cell-based; settings: Homo sapiens
MDA-MB-231 [15] = assay: Induction of ROS production in human MDA-MB-231 cells assessed as increase in mean fluorescence intensity at 10 uM measured after 24 hrs by DCFH-DA staining based inverted microscopic analysis; assay type: functional, cell-based
Caco-2 = assay: Cytotoxicity against human Caco2 cells; assay type: functional, cell-based

Compound: Cc1cc(=O)n(-c2ccc(C(F)(F)F)cc2)nc1C(=O)Nc1cccc(C(=O)N(C)C)c1O
- inhibition ([1]; filed as antagonist): 69.4%
- Activity (MDA-MB-231 [2]): 52%
- Activity (MDA-MB-231 [3]): 49.7%
- Activity (HUVEC [4]): 59.2%
- IC50 (MDA-MB-231 [5]): 5.93 µM
- IC50 (MDA-MB-231 [6]): 2.96 µM
- IC50 (MDA-MB-231 [7]): > 25 µM
- inhibition (MDA-MB-231 [8]): Active
- inhibition (MDA-MB-231 [9]): Active
- inhibition (MDA-MB-231 [10]): Active
- inhibition (MDA-MB-231 [11]): Active
- inhibition (MDA-MB-231 [12]): Active
- inhibition (MDA-MB-231 [13]): Active
- Activity (HUVEC [14]): Active
- Activity (MDA-MB-231 [15]): Active

Compound: Cc1ccccc1-n1nc(C(=O)Nc2cccc(C(=O)N(C)C)c2O)n(C)c1=O
- inhibition ([1]; filed as antagonist): 43.8%

Compound: Cc1ccccc1-n1nc(C(=O)Nc2cccc(C(=O)N(C)C)c2O)c(C)cc1=O
- inhibition [1]: 6.1%

Compound: Cc1cc(=O)n(-c2ccc(Cl)cc2Cl)nc1C(=O)Nc1cccc(C(=O)N(C)C)c1O
- inhibition [1]: -8.2%

Compound: Cc1cccc(-n2nc(C(=O)Nc3cccc(C(=O)N(C)C)c3O)c(C)cc2=O)c1
- inhibition [1]: 11.2%

Compound: Cc1ccc(-n2nc(C(=O)Nc3cccc(C(=O)N(C)C)c3O)c(C)cc2=O)cc1
- inhibition [1]: 26.9%

Compound: Cc1ccc(-n2nc(C(=O)Nc3cccc(C(=O)N(C)C)c3O)n(C)c2=O)cc1
- inhibition [1]: 24.3%

Compound: CN(C)C(=O)c1cccc(NC(=O)c2nn(-c3ccccc3)c(=O)n2C)c1O
- inhibition [1]: 18.6%

Compound: Cc1cccc(-n2nc(C(=O)Nc3cccc(C(=O)N(C)C)c3O)n(C)c2=O)c1
- inhibition ([1]; filed as antagonist): 43.8%

Compound: CN(C)C(=O)c1cccc(NC(=O)c2nn(-c3ccc(C(F)(F)F)cc3)c(=O)n2C)c1O
- inhibition [1]: 21.6%

Compound: Cc1cc(=O)n(-c2ccccc2)nc1C(=O)Nc1cccc(C(=O)N(C)C)c1O
- inhibition [1]: 3.2%

Compound: Cc1cc(=O)n(-c2ccc(F)cc2)nc1C(=O)Nc1cccc(C(=O)N(C)C)c1O
- inhibition [1]: -0.8%

Compound: Cc1cc(=O)n(-c2ccc(Cl)c(Cl)c2)nc1C(=O)Nc1cccc(C(=O)N(C)C)c1O
- inhibition [1]: 10.9%

Compound: COc1ccc(-n2nc(C(=O)Nc3cccc(C(=O)N(C)C)c3O)c(C)cc2=O)cc1
- inhibition [1]: 34.6%

Compound: CN(C)C(=O)c1cccc(NC(=O)c2nn(-c3ccc(Cl)cc3Cl)c(=O)n2C)c1O
- inhibition [1]: 26.6%

Compound: C#Cc1ccc(-n2nc(C(=O)Nc3cccc(C(=O)N(C)C)c3O)c(C)cc2=O)cc1
- inhibition [1]: 1.5%

Compound: CC[C@@H](Nc1c(Nc2cccc(C(=O)N(C)C)c2O)c(=O)c1=O)c1ccc(C)o1 [NAVARIXIN ANHYDROUS]
- IC50 (Caco-2): 18.8 µM

Compound: CN(C)C(=O)c1cccc(NC(=O)c2nn(-c3ccc(F)cc3)c(=O)n2C)c1O
- inhibition [1]: 12.7%

Compound: Cc1cc(=O)n(-c2ccc(C(C)(C)C)cc2)nc1C(=O)Nc1cccc(C(=O)N(C)C)c1O
- inhibition [1]: 20.4%

Compound: CNC(=O)c1cc(Oc2ccc(NC(=O)Nc3ccc(Cl)c(C(F)(F)F)c3)cc2)ccn1 [SORAFENIB]
- IC50 (MDA-MB-231 [7]): 8.52 µM

Compound: CN(C)C(=O)c1cccc(NC(=O)c2nn(-c3ccc(Cl)c(Cl)c3)c(=O)n2C)c1O
- inhibition [1]: 32.3%

Compound: CN(C)C(=O)c1cccc(NC(=O)c2nn(-c3ccc(C(C)(C)C)cc3)c(=O)n2C)c1O
- inhibition ([1]; filed as antagonist): 40.9%

Compound: C#Cc1ccc(-n2nc(C(=O)Nc3cccc(C(=O)N(C)C)c3O)n(C)c2=O)cc1
- inhibition ([1]; filed as antagonist): 49.2%

Compound: CN(C)C(=O)c1cccc(NC(=O)c2nn(-c3ccc(Cl)cc3)c(=O)n2C)c1O
- inhibition [1]: 27.2%

Compound: O=C(Nc1ccc([N+](=O)[O-])cc1O)Nc1ccccc1Br
- Activity (MDA-MB-231 [2]): 52.3%
- Activity (MDA-MB-231 [3]): 44%
- Activity (HUVEC [4]): 55.2%
- inhibition (MDA-MB-231 [10]): Active
- inhibition (MDA-MB-231 [11]): Active
- inhibition (MDA-MB-231 [12]): Active
- inhibition (MDA-MB-231 [13]): Active
- Activity (HUVEC [14]): inactive
- Activity (MDA-MB-231 [15]): Active
